# Results reported in US12576129B2, “Anthelmintic compositions and methods” (priority 2016, dated 2026).
# Where two headings read alike, the source gives them in different places.
# Columns and labels:
# [1] = cited from earlier work
# BaCC [2] = experiment: Minimum inhibitory concentration of terpenes against BaCC (broth microdilution); assay type: cell-based; conditions: Bacillus thuringiensis; 24 h at 30° C. in LB; no absorbance increase; read-out: MIC μg/mL (100)
# Protocol: Three terpenes were tested against BaCC including: carvacrol, geraniol and farnesol, by using the broth microdilution method as described in Agaisse and Lereclus, J. Bacteriol. 176, 4734-4741, 1994 and Agaisse and Lereclus, Mol. Microbiol. 13, 97-107, 1994 with some modifications. Briefly, BaCC from a single colony was grown in 5 mL of LB medium supplemented with 10 μg/mL erythromycin+200 μg/mL kanamycin overnight (O.D. (600) of 4.8, 2.3×10^7 CFU/mL). Terpene solutions were prepared at 1 mg/mL in LB. One hundred μL of two-fold serial dilutions of each terpene in LB were prepared in 96-well microtiter plates over the range of 1000 to 3.9 μg/mL in triplicate. LB without terpenes was used as a negative control. BaCC culture was diluted 100 times, and 100 μL of BaCC culture was added to the wells. Absorbance at 600 nm was recorded before and after the incubation to monitor bacterial growth. The MICs were determined after incubation for 24 h at 30° C. without shaking.
# BaCC [3] = experiment: Time to kill: CFU/mL of BaCC after terpene treatment; assay type: cell-based, Bacillus thuringiensis
# Protocol: In order to determine which terpene kills BaCC in the shortest amount of time, we incubated 5 mL of BaCC culture with three terpenes at 1 mg/mL at 4° C. for 1, 2, 3 and 5 hours. No terpene control and no bacteria controls were carried out simultaneously. After incubation with terpenes, samples were centrifuged and the pellets were washed with 5 mL of 1M NaCl once and 5 mL of sterile distilled water twice in order to remove the terpenes. The pellets were re-suspended in the original volume and plated on LB agar with kanamycin and erythromycin. Plates were incubated overnight at 30° C.; the next day, the number of colonies on the plates were enumerated and colony forming units (CFU)/mL calculated.
# To assess terpene killing at shorter time points, BaCC culture was grown in 3× LB for 48 h as described above and 60 ml of cultures were aliquoted in sterile tubes. Carvacrol and geraniol were added to the final concentration of 1 mg/mL, and the tubes were placed on a rotator at 4° C. for 15 minutes. The negative control was prepared using sterile water instead of terpenes. At the end of the incubation period, the tubes were centrifuged at 2000× g for 10 minutes and pellets washed with 60 ml of 1 M NaCl once and washed with 60 mL of sterile distilled water twice. Pellets were re-suspended in 1.2 mL of sterile distilled water to concentrate the culture 50 times. Concentrated terpene treated and control samples were plated on LB agar plates containing kanamycin and erythromycin and incubated overnight at 30° C. The number of colonies were counted the next day and CFU/mL calculated for each time point.
# E. coli = experiment: CFU of E. coli after carvacrol treatment; assay type: cell-based, Escherichia coli; conditions: 1 mg/mL carvacrol for 15 minutes
# Protocol: Bioactivity of carvacrol-treated Crystal-E. coli on C. elegans. Escherichia coli cells expressing nematicidal Crystal protein or empty vector were treated for 15 minutes with 1 mg/mL carvacrol. The cells were washed in sterile water 3 times. CFUs were determined for untreated and carvacrol-treated cells by serial dilution plating on LB plates. In addition, C. elegans nematode L4 hermaphrodites were fed overnight 1.8 ×10^7 cells/mL of E. coli untreated or carvacrol-treated, Crystal expressing and empty vector (4 conditions) at 25° C. for 16 hr.
# BaCC [4] = experiment: Carvacrol wash protocols: alive bacteria (CFU) after treatment; assay type: cell-based, Bacillus thuringiensis
# Protocol: To reduce carvacrol residue in the final product, we tested different strategies. In order to reduce the carvacrol residue in the final IBaCC product, first the total amount of carvacrol was reduced by concentrating the cultures before carvacrol treatment. The cultures were centrifuged, and the pellets were re-suspended in sterile distilled water in half or one fourth of the original culture volume. Then, carvacrol was added at 1 mg/mL concentration. Second, carvacrol was removed from the culture by increasing the solubility of carvacrol in the water phase. […] As such, 5% and 15% of ethanol water was used in the washing steps following the IBaCC incubation with carvacrol. Another strategy employed was to increase the volume of distilled water during the washing steps to remove more carvacrol per wash step (for instance, only 25 mg carvacrol can be solubilized with 20 mL of water while 50 mg carvacrol can be solubilized with 40 mL of water.) Lastly, since the temperature affects carvacrol solubility, the incubation and washing steps were carried out at room temperature instead of 4° C. The positive control sample was treated with 1 mg/mL carvacrol without concentrating the culture prior to carvacrol treatment, incubated at 4° C., washed with 1M NaCl once and distilled water twice using 1:1 culture to wash volume ratio. No terpene control sample received water instead of carvacrol, but the incubation and washing steps were carried out in the same manner as the positive control. BaCC culture was grown in 3× LB for 48 hours, and 40 mL of BaCC culture was used for each condition. After washes, the culture was concentrated 20 times. Samples were plated for CFU/mL analysis as described earlier, and carvacrol residue was assessed by HPLC as follows.
# [5] = Concentrated 2X = 20 ml before adding carvacrol (1 mg/mL)
# [6] = Concentrated 4X = 10 ml before adding carvacrol (1 mg/mL)
# [7] = Control: 4C, no concentration, 1:1 culture to wash volume (1 mg/mL carvacrol)
# [8] = Incubated and washed at room temperature
# [9] = Wash volume increased 2X (e.g., 40 ml wash for 20 ml culture)
# [10] = Washes were done with 5% ethanol in water
# [11] = Washes were done with 15% ethanol in water
compound,measurement,setting,value
"Cc1ccc(C(C)C)cc1O [Carvacrol, carvacrol]",log P octanol/water,[1],3.64
same,amount that can be solubilized,[1]; with 20 mL of water,25 mg
same,amount that can be solubilized,[1]; with 40 mL of water,50 mg
same,MIC,BaCC [2],125 µg/mL
same,CFU/ml (1 mg/mL terpene treatment for time indicated),"BaCC [3]; 15 min at 4° C., culture concentrated 50 times (50X conc.) before plating",0 CFU/ml
same,CFU/ml (1 mg/mL terpene treatment for time indicated),BaCC [3]; 1 h at 4° C.,0 CFU/ml
same,CFU/ml (1 mg/mL terpene treatment for time indicated),BaCC [3]; 3 h at 4° C.,0 CFU/ml
same,CFU/ml (1 mg/mL terpene treatment for time indicated),BaCC [3]; 5 h at 4° C.,0 CFU/ml
same,killing of BaCC (spo0A- cells expressing Cry5B),BaCC [3]; carvacrol treatment,complete killing of the Bacilli
same,comparison of antimicrobial efficiency among the 3 terpenes,"BaCC [3]; carvacrol, geraniol, farnesol against BaCC","most efficient, killing the quickest and at the lowest concentration"
same,CFU/ml (1 mg/mL terpene treatment for time indicated),BaCC [3]; time 0,2.31 × 10^7 CFU/ml
same,killing of E. coli (CFUs),E. coli,effectively killed the E. coli
same,Number of alive bacteria in 1 ml 20X concentrate,BaCC [4]; [5],0
same,Number of alive bacteria in 1 ml culture,BaCC [4]; [5],0
same,Number of alive bacteria in 1 ml 20X concentrate,BaCC [4]; [6],0
same,Number of alive bacteria in 1 ml culture,BaCC [4]; [6],0
same,Number of alive bacteria in 1 ml 20X concentrate,BaCC [4]; [7],0
same,Number of alive bacteria in 1 ml culture,BaCC [4]; [7],0
same,Number of alive bacteria in 1 ml 20X concentrate,BaCC [4]; [8],0
same,Number of alive bacteria in 1 ml culture,BaCC [4]; [8],0
same,Number of alive bacteria in 1 ml 20X concentrate,BaCC [4]; [9],140
same,Number of alive bacteria in 1 ml culture,BaCC [4]; [9],7
same,Number of alive bacteria in 1 ml 20X concentrate,BaCC [4]; [10],0
same,Number of alive bacteria in 1 ml culture,BaCC [4]; [10],0
same,Number of alive bacteria in 1 ml 20X concentrate,BaCC [4]; [11],160
same,Number of alive bacteria in 1 ml culture,BaCC [4]; [11],8
